The values that follow come from PMC11681892, “Targeting p62 by sulforaphane promotes autolysosomal degradation of SLC7A11, inducing ferroptosis for osteosarcoma treatment” (Redox Biology, 2024).

Assay [1] addresses T1, p62 (Homo sapiens, UniProt Q13501).
T1 construct: gene SQSTM1; p62-mCherry plasmid expressed in HEK293T, RIPA lysate (MST); endogenous p62 in human osteosarcoma cells (CETSA); p62 mutants transfected into 143B cells (DARTS)
Kind of assay: cellular thermal shift assay (CETSA), western blot. The assay is classed as cell-based. As to conditions: endogenous p62 in osteosarcoma cells, SFN 20 μM, 2 h, 46-60 °C gradient. On the technique in general: In western blotting, separated proteins are transferred to a membrane and probed.

Assay [2] addresses T1, p62. The assay is described as follows: microscale thermophoresis (Monolith NT.[…]). The assay is classed as binding. (MST reads how a fluorescent partner responds to local heating, with and without ligand.)

T1 sequence (Q13501 2-440): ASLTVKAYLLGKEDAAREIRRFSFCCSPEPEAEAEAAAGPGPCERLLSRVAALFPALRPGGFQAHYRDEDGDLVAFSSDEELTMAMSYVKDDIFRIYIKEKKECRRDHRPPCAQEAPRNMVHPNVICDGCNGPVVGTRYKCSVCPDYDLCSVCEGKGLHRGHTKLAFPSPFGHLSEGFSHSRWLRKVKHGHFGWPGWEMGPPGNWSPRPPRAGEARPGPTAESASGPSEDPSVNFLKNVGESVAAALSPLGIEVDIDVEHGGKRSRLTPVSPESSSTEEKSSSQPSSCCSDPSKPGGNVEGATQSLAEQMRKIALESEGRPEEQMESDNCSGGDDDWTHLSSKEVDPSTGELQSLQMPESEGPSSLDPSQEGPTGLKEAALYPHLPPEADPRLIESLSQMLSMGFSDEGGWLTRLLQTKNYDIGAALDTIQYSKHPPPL

Regarding `C[S@@+]([O-])CCCCN=C=S` [Sulforaphane], in assay [1], the “thermal stability (CETSA)” value is “SFN significantly enhanced the thermal stability of p62 in OS cells (Fig. 6C)”. Moreover, in assay [2], the Kd was 15.5 ± 3.93 µM.

Broadly, the Kd is the free concentration of one partner at which half of the binding sites on the other are occupied at equilibrium, for simple one-to-one binding. Higher therefore signals a looser complex.
